# In patent US20100061928A1, “LABELLED ANALOGUES OF HALOBENZAMIDES AS RADIOPHARMACEUTICALS” (Institut National De La Sante et De La Recherche Medicale …, priority 2006, published 2010):
# Legend:
# [1] = Elimination of the molecules: cumulative urinary and faecal excretion 0-72 hours; assay type: in vivo, mouse
# tumour = test: Dosimetry with regard to the tumour (MIRD programme, extrapolated to ^131I)
# [2] = system: grafted B16 F0 murine melanoma tumour; test: Biodistribution of the ^125I-labelled molecules in the melanoma-bearing mouse (autoradiography of whole-body sections); conditions: for Concentration of radioactivity, B 16 (tumour), Mean / Concentration of radioactivity, Ic (intestinal contents), Mean / Concentration of radioactivity, Sc (stomach contents), Mean / Concentration of radioactivity, blood (measured in the heart cavity), Mean / Concentration of radioactivity, brain, Mean / Concentration of radioactivity, kidney, Mean / Concentration of radioactivity, liver, Mean / Concentration of radioactivity, lungs, Mean / Concentration of radioactivity, muscle (skeletal muscle), Mean / Concentration of radioactivity, pancreas, Mean / Concentration of radioactivity, spleen, Mean / Concentration of radioactivity, uvea (pigmented tissues of the eye), Mean: ^125I-labelled compound
smiles,measurement,setting,value
"CCN(CC)CCNC(=O)c1ccc2cc(I)ccc2n1.Cl.Cl [compound 31, N-(2-diethylaminoethyl)-6-iodoquinoline-2-carboxamide dihydrochloride]",Faecal elimination 0-72 hours (Faeces),"[1]; cumulative excretion 0-72 hours, faeces, mice in metabolic cages",11.4%
same,Urinary and faecal elimination 0-72 hours (Total),"[1]; cumulative excretion 0-72 hours, urine + faeces",91.2%
same,Urinary elimination 0-72 hours (Urine),"[1]; cumulative excretion 0-72 hours, urine, mice in metabolic cages",80.7%
same,elimination route (in words),"[1]; urinary versus faecal, 0-72 hours",predominantly in the urine
same,Effective period,tumour; extrapolated to 131I labelling,31.8 h
same,Biological period,tumour; from biodistribution data,38.0 hours
same,"Concentration of radioactivity, B 16 (tumour), Mean",[2]; 1 H after i.v. administration,19.63 % ID/g
same,"Concentration of radioactivity, Ic (intestinal contents), Mean",[2]; 1 H after i.v. administration,15.78 % ID/g
same,"Concentration of radioactivity, Sc (stomach contents), Mean",[2]; 1 H after i.v. administration,48.03 % ID/g
same,"Concentration of radioactivity, blood (measured in the heart cavity), Mean",[2]; 1 H after i.v. administration,7.01 % ID/g
same,"Concentration of radioactivity, brain, Mean",[2]; 1 H after i.v. administration,1.96 % ID/g
same,"Concentration of radioactivity, kidney, Mean",[2]; 1 H after i.v. administration,11.82 % ID/g
same,"Concentration of radioactivity, liver, Mean",[2]; 1 H after i.v. administration,10.92 % ID/g
same,"Concentration of radioactivity, lungs, Mean",[2]; 1 H after i.v. administration,9.41 % ID/g
same,"Concentration of radioactivity, muscle (skeletal muscle), Mean",[2]; 1 H after i.v. administration,1.79 % ID/g
same,"Concentration of radioactivity, pancreas, Mean",[2]; 1 H after i.v. administration,9.80 % ID/g
same,"Concentration of radioactivity, spleen, Mean",[2]; 1 H after i.v. administration,11.56 % ID/g
same,"Concentration of radioactivity, uvea (pigmented tissues of the eye), Mean",[2]; 1 H after i.v. administration,32.71 % ID/g
same,"Concentration of radioactivity, B 16 (tumour), Mean",[2]; 3 H after i.v. administration,25.35 % ID/g
same,"Concentration of radioactivity, Ic (intestinal contents), Mean",[2]; 3 H after i.v. administration,20.65 % ID/g
same,"Concentration of radioactivity, Sc (stomach contents), Mean",[2]; 3 H after i.v. administration,34.72 % ID/g
same,"Concentration of radioactivity, blood (measured in the heart cavity), Mean",[2]; 3 H after i.v. administration,5.57 % ID/g
same,"Concentration of radioactivity, brain, Mean",[2]; 3 H after i.v. administration,0.83 % ID/g
same,"Concentration of radioactivity, kidney, Mean",[2]; 3 H after i.v. administration,12.59 % ID/g
same,"Concentration of radioactivity, liver, Mean",[2]; 3 H after i.v. administration,8.89 % ID/g
same,"Concentration of radioactivity, lungs, Mean",[2]; 3 H after i.v. administration,5.58 % ID/g
same,"Concentration of radioactivity, muscle (skeletal muscle), Mean",[2]; 3 H after i.v. administration,1.14 % ID/g
same,"Concentration of radioactivity, pancreas, Mean",[2]; 3 H after i.v. administration,6.17 % ID/g
same,"Concentration of radioactivity, spleen, Mean",[2]; 3 H after i.v. administration,10.63 % ID/g
same,"Concentration of radioactivity, uvea (pigmented tissues of the eye), Mean",[2]; 3 H after i.v. administration,33.10 % ID/g
same,"Concentration of radioactivity, B 16 (tumour), Mean",[2]; 6 H after i.v. administration,17.21 % ID/g
same,"Concentration of radioactivity, Ic (intestinal contents), Mean",[2]; 6 H after i.v. administration,23.36 % ID/g
same,"Concentration of radioactivity, Sc (stomach contents), Mean",[2]; 6 H after i.v. administration,65.36 % ID/g
same,"Concentration of radioactivity, blood (measured in the heart cavity), Mean",[2]; 6 H after i.v. administration,5.91 % ID/g
same,"Concentration of radioactivity, brain, Mean",[2]; 6 H after i.v. administration,0.37 % ID/g
same,"Concentration of radioactivity, kidney, Mean",[2]; 6 H after i.v. administration,7.60 % ID/g
same,"Concentration of radioactivity, liver, Mean",[2]; 6 H after i.v. administration,7.11 % ID/g
same,"Concentration of radioactivity, lungs, Mean",[2]; 6 H after i.v. administration,5.32 % ID/g
same,"Concentration of radioactivity, muscle (skeletal muscle), Mean",[2]; 6 H after i.v. administration,0.95 % ID/g
same,"Concentration of radioactivity, spleen, Mean",[2]; 6 H after i.v. administration,7.60 % ID/g
same,"Concentration of radioactivity, uvea (pigmented tissues of the eye), Mean",[2]; 6 H after i.v. administration,36.62 % ID/g
same,"Concentration of radioactivity, B 16 (tumour), Mean",[2]; 24 H after i.v. administration,12.13 % ID/g
same,"Concentration of radioactivity, Ic (intestinal contents), Mean",[2]; 24 H after i.v. administration,1.45 % ID/g
same,"Concentration of radioactivity, Sc (stomach contents), Mean",[2]; 24 H after i.v. administration,2.33 % ID/g
same,"Concentration of radioactivity, kidney, Mean",[2]; 24 H after i.v. administration,0.34 % ID/g
same,"Concentration of radioactivity, liver, Mean",[2]; 24 H after i.v. administration,2.25 % ID/g
same,"Concentration of radioactivity, lungs, Mean",[2]; 24 H after i.v. administration,0.53 % ID/g
same,"Concentration of radioactivity, spleen, Mean",[2]; 24 H after i.v. administration,2.66 % ID/g
same,"Concentration of radioactivity, uvea (pigmented tissues of the eye), Mean",[2]; 24 H after i.v. administration,22.27 % ID/g
same,"Concentration of radioactivity, B 16 (tumour), Mean",[2]; 72 H after i.v. administration,5.93 % ID/g
same,"Concentration of radioactivity, liver, Mean",[2]; 72 H after i.v. administration,1.23 % ID/g
same,"Concentration of radioactivity, spleen, Mean",[2]; 72 H after i.v. administration,1.85 % ID/g
same,"Concentration of radioactivity, uvea (pigmented tissues of the eye), Mean",[2]; 72 H after i.v. administration,18.30 % ID/g
same,"tumour concentration, times higher than with BZA",[2]; at 72 hours (FIG. 1B),8 times
same,"tumour concentration, % of the injected dose per gram of tumour",[2]; from the first hour,19.6 % ID/g
